Test system: tetrabenazine-induced ptosis
Test: Test for influence on tetrabenazine-induced ptosis in mice
Assay type: in vivo, mice (male, SPF-71, KF:NMRI)
Conditions: Mus musculus, po, 0.5 h, p.o., tetrabenazine 40 mg/kg i.p. 30 minutes after test substance, ptosis scored 30 minutes later, 50% of control ptosis, 95% confidence limit in parentheses
Experimental: Test for influence on tetrabenazine-induced ptosis
Male mice (SPF-71, KF:NMRI) weighing 18-22 g were allotted at random to treatment groups of 6 animals. The test substances were suspended in 1% strength methylhydroxyethylcellulose (MH)/water and administered orally at 10 ml/kg of body weight. A control group was given the solvent (1% strength MH), and the standard group was given 10 mg/kg p.o. of nomifensine (in 1% strength MH). The tetrabenazine solution used was prepared from methanesulfonate (.congruent.76.8% of base), and an amount corresponding to 40 mg/kg of tetrabenazine base was administered intraperitoneally 30 minutes after the test substances. The ptosis was assessed according to the following scale 30 minutes after administration of tetrabenazine: […]
The ptosis scores were cumulated and the result of the groups related to the maximum score achievable (6×.varies.=100%). By means of linear regression, the ED50 (mg/kg) was determined as the dose at which the degree of ptosis is 50% of the value determined in the control group.

SMILES | ED50 [mg/kg]
C=CCC1(C(O)C(c2cccc(Cl)c2)n2ccnc2)CCCCC1 (centres unmarked) [Example 1, 1-(1-Allyl-1-cyclohexyl)-2-(3-chlorophenyl)-2-(1-imidazolyl)-ethanol] | 3.9
C=CCC(C)(C)C(O)C(c1cccc(Cl)c1)n1ccnc1 (centres unmarked) [Example 2, 1-(3Chlorophenyl)-3,3-dimethyl-1-(1-imidazolyl)-5-hexen-2-ol] | 2
C=CCC(C)(C)C(O)C(c1ccc(-c2ccccc2)cc1)n1ccnc1 (centres unmarked) [Example 13] | 1.3
CCCC(C)(C)C(O)C(c1ccc(-c2ccccc2)cc1)n1ccnc1 (centres unmarked) [Example 26, 1-(4-Diphenyl)-3,3-dimethyl-1-(1-imidazolyl)-2-hexanol] | 1.2
CN1Cc2c(N)cccc2C(c2ccccc2)C1 (centres unmarked) [nomifensine, reference compound] | 1.2
